Data as given in publication PMC8355244, “A fragment-based approach identifies an allosteric pocket that impacts malate dehydrogenase activity” (Communications Biology, 2021).

Target: T1, PfMDH (Plasmodium falciparum, UniProt Q6VVP7)
T1 construct: The full-length WT PfMDH gene was cloned into pETM-13; made in house; host or cells: E. coli Rosetta 2 (DE3) pLysS
Experiment: Thermal shift assay (TSA)
Assay type: binding
Conditions: for TSA melting curve raw signal: triplicate columns; for TSA melting curve raw fluorescence signal: three replicate columns
In short: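 10 μM PfMDH with 1 mM compound in 100 mM Na–phosphate pH 7.4, 400 mM NaCl, 10× Sypro Orange; 1% DMSO controls. Melting inflection points taken as Tm; shifts >1 °C read as stabilization, negative shifts as destabilization.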

T1 sequence (Q6VVP7 entry or part of it): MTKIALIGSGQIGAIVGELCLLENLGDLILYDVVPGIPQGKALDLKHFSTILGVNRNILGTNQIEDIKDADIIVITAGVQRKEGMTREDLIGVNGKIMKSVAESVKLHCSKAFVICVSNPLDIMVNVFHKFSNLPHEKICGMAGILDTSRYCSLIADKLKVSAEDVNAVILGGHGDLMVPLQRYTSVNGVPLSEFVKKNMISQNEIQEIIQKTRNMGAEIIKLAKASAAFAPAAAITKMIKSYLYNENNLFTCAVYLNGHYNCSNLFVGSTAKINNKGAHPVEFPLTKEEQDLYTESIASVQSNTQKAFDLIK

## Nc1nc(-c2cccc(C(F)(F)F)c2)cs1 [4PA-CF3]
Temperature 25
  TSA melting curve raw signal: 3528,09586476992
Temperature 25.5
  TSA melting curve raw signal: 3521,76972099321
Temperature 26
  TSA melting curve raw signal: 3515,44357721651
Temperature 26.5
  TSA melting curve raw signal: 3509,11743343981
Temperature 27
  TSA melting curve raw signal: 3502,7912896631
Temperature 27.5
  TSA melting curve raw signal: 3496,46514588642
Temperature 28
  TSA melting curve raw signal: 3490,13900210971
Temperature 28.5
  TSA melting curve raw signal: 3483,6143624971
Temperature 29
  TSA melting curve raw signal: 3476,38988350175
Temperature 29.5
  TSA melting curve raw signal: 3468,17176134374
Temperature 30
  TSA melting curve raw signal: 3458,89345122044
Temperature 30.5
  TSA melting curve raw signal: 3449,61666086928
Temperature 31
  TSA melting curve raw signal: 3441,08813548452
Temperature 31.5
  TSA melting curve raw signal: 3434,74480463775
Temperature 32
  TSA melting curve raw signal: 3431,63306422988
Temperature 32.5
  TSA melting curve raw signal: 3433,04755783933
Temperature 33
  TSA melting curve raw signal: 3439,08846015031
Temperature 33.5
  TSA melting curve raw signal: 3450,49167244057
Temperature 34
  TSA melting curve raw signal: 3467,07326310557
Temperature 34.5
  TSA melting curve raw signal: 3489,23124555062
Temperature 35
  TSA melting curve raw signal: 3516,74965348479
Temperature 35.5
  TSA melting curve raw signal: 3550,12307997406
Temperature 36
  TSA melting curve raw signal: 3588,6701161146
Temperature 36.5
  TSA melting curve raw signal: 3632,52278047685
Temperature 37
  TSA melting curve raw signal: 3681,13015232277
Temperature 37.5
  TSA melting curve raw signal: 3734,10747497721
Temperature 38
  TSA melting curve raw signal: 3790,66694872421
Temperature 38.5
  TSA melting curve raw signal: 3851,32307413445
Temperature 39
  TSA melting curve raw signal: 3915,60016677996
Temperature 39.5
  TSA melting curve raw signal: 3983,88715310611
Temperature 40
  TSA melting curve raw signal: 4056,33336034943
Temperature 40.5
  TSA melting curve raw signal: 4133,49326014565
Temperature 41
  TSA melting curve raw signal: 4215,01497025314
Temperature 41.5
  TSA melting curve raw signal: 4301,78127396551
Temperature 42
  TSA melting curve raw signal: 4393,43575455581
Temperature 42.5
  TSA melting curve raw signal: 4490,37169124646
Temperature 43
  TSA melting curve raw signal: 4592,69941738304
Temperature 43.5
  TSA melting curve raw signal: 4701,32966638299
Temperature 44
  TSA melting curve raw signal: 4815,85327556672
Temperature 44.5
  TSA melting curve raw signal: 4937,62413315095
Temperature 45
  TSA melting curve raw signal: 5067,14562465788
Temperature 45.5
  TSA melting curve raw signal: 5204,83599333482
Temperature 46
  TSA melting curve raw signal: 5349,70118139591
Temperature 46.5
  TSA melting curve raw signal: 5501,84311892238
Temperature 47
  TSA melting curve raw signal: 5660,17327748149
Temperature 47.5
  TSA melting curve raw signal: 5824,5723421521
Temperature 48
  TSA melting curve raw signal: 5994,36303099828
Temperature 48.5
  TSA melting curve raw signal: 6169,71492788648
Temperature 49
  TSA melting curve raw signal: 6349,90301622462
Temperature 49.5
  TSA melting curve raw signal: 6533,67708046246
Temperature 50
  TSA melting curve raw signal: 6718,43346697938
Temperature 50.5
  TSA melting curve raw signal: 6903,01197489117
Temperature 51
  TSA melting curve raw signal: 7086,14140810373
Temperature 51.5
  TSA melting curve raw signal: 7267,40973427596
Temperature 52
  TSA melting curve raw signal: 7446,07311090688
Temperature 52.5
  TSA melting curve raw signal: 7623,17790419487
Temperature 53
  TSA melting curve raw signal: 7798,35186729642
Temperature 53.5
  TSA melting curve raw signal: 7971,57187818721
Temperature 54
  TSA melting curve raw signal: 8142,18042787582
Temperature 54.5
  TSA melting curve raw signal: 8310,47539211232
Temperature 55
  TSA melting curve raw signal: 8475,6367965612
Temperature 55.5
  TSA melting curve raw signal: 8637,15264587991
Temperature 56
  TSA melting curve raw signal: 8794,24720730786
Temperature 56.5
  TSA melting curve raw signal: 8944,76644495546
Temperature 57
  TSA melting curve raw signal: 9087,23982318044
Temperature 57.5
  TSA melting curve raw signal: 9218,83300839243
Temperature 58
  TSA melting curve raw signal: 9336,46564098951
Temperature 58.5
  TSA melting curve raw signal: 9436,67708833889
Temperature 59
  TSA melting curve raw signal: 9517,94306567009
Temperature 59.5
  TSA melting curve raw signal: 9577,90589829803
Temperature 60
  TSA melting curve raw signal: 9615,75986877433
Temperature 60.5
  TSA melting curve raw signal: 9632,47637998784
Temperature 61
  TSA melting curve raw signal: 9629,58012627007
Temperature 61.5
  TSA melting curve raw signal: 9608,67157988917
Temperature 62
  TSA melting curve raw signal: 9572,5500875914
Temperature 62.5
  TSA melting curve raw signal: 9524,64551903011
Temperature 63
  TSA melting curve raw signal: 9467,03768559296
Temperature 63.5
  TSA melting curve raw signal: 9402,51349679748
Temperature 64
  TSA melting curve raw signal: 9333,57184164816
Temperature 64.5
  TSA melting curve raw signal: 9261,62563971527
Temperature 65
  TSA melting curve raw signal: 9187,49083186044
Temperature 65.5
  TSA melting curve raw fluorescence signal: 9112,23978010048
Temperature 66
  TSA melting curve raw fluorescence signal: 9036,14068242361
Temperature 66.5
  TSA melting curve raw fluorescence signal: 8959,64465212255
Temperature 67
  TSA melting curve raw fluorescence signal: 8882,7175782058
Temperature 67.5
  TSA melting curve raw fluorescence signal: 8805,44643012468
Temperature 68
  TSA melting curve raw fluorescence signal: 8728,2852860298
Temperature 68.5
  TSA melting curve raw fluorescence signal: 8651,13021944227
Temperature 69
  TSA melting curve raw fluorescence signal: 8573,32870649645
Temperature 69.5
  TSA melting curve raw fluorescence signal: 8495,58180428762
Temperature 70
  TSA melting curve raw fluorescence signal: 8418,5896254098
Temperature 70.5
  TSA melting curve raw fluorescence signal: 8341,60149220391
Temperature 71
  TSA melting curve raw fluorescence signal: 8265,01816022305
Temperature 71.5
  TSA melting curve raw fluorescence signal: 8189,69867306721
Temperature 72
  TSA melting curve raw fluorescence signal: 8115,16555879573
Temperature 72.5
  TSA melting curve raw fluorescence signal: 8040,74958248259
Temperature 73
  TSA melting curve raw fluorescence signal: 7967,12767450409
Temperature 73.5
  TSA melting curve raw fluorescence signal: 7893,92662128296
Temperature 74
  TSA melting curve raw fluorescence signal: 7821,33430208039
Temperature 74.5
  TSA melting curve raw fluorescence signal: 7749,70992701054
Temperature 75
  TSA melting curve raw fluorescence signal: 7679,18807246448
Temperature 75.5
  TSA melting curve raw fluorescence signal: 7609,86094414536
Temperature 76
  TSA melting curve raw fluorescence signal: 7542,08165155543
Temperature 76.5
  TSA melting curve raw fluorescence signal: 7475,0463497461
Temperature 77
  TSA melting curve raw fluorescence signal: 7409,10099573983
Temperature 77.5
  TSA melting curve raw fluorescence signal: 7344,43096825342
Temperature 78
  TSA melting curve raw fluorescence signal: 7280,55827608543
Temperature 78.5
  TSA melting curve raw fluorescence signal: 7217,66024170967
Temperature 79
  TSA melting curve raw fluorescence signal: 7156,47260834302
Temperature 79.5
  TSA melting curve raw fluorescence signal: 7096,07409325447
Temperature 80
  TSA melting curve raw fluorescence signal: 7036,61045690039
Temperature 80.5
  TSA melting curve raw fluorescence signal: 6978,28713486927
Temperature 81
  TSA melting curve raw fluorescence signal: 6920,87145232924
Temperature 81.5
  TSA melting curve raw fluorescence signal: 6863,63731764689
Temperature 82
  TSA melting curve raw fluorescence signal: 6807,28937755567
Temperature 82.5
  TSA melting curve raw fluorescence signal: 6751,29328141381
Temperature 83
  TSA melting curve raw fluorescence signal: 6695,78422169472
Temperature 83.5
  TSA melting curve raw fluorescence signal: 6641,03413791343
Temperature 84
  TSA melting curve raw fluorescence signal: 6587,1569082437
Temperature 84.5
  TSA melting curve raw fluorescence signal: 6533,84298175497
Temperature 85
  TSA melting curve raw fluorescence signal: 6481,33407729233
Temperature 85.5
  TSA melting curve raw fluorescence signal: 6429,30339853042
Temperature 86
  TSA melting curve raw fluorescence signal: 6377,40763821637
Temperature 86.5
  TSA melting curve raw fluorescence signal: 6325,81148238932
Temperature 87
  TSA melting curve raw fluorescence signal: 6274,52300647726
Temperature 87.5
  TSA melting curve raw fluorescence signal: 6222,85213595833
Temperature 88
  TSA melting curve raw fluorescence signal: 6171,16491119654
Temperature 88.5
  TSA melting curve raw fluorescence signal: 6119,12156951999
Temperature 89
  TSA melting curve raw fluorescence signal: 6066,61924971662
Temperature 89.5
  TSA melting curve raw fluorescence signal: 6013,73939632859
Temperature 90
  TSA melting curve raw fluorescence signal: 5961,79604131278
Temperature 90.5
  TSA melting curve raw fluorescence signal: 5910,31866711244
Temperature 91
  TSA melting curve raw fluorescence signal: 5859,96386783167
Temperature 91.5
  TSA melting curve raw fluorescence signal: 5810,60393842017
Temperature 92
  TSA melting curve raw fluorescence signal: 5761,96047868944
Temperature 92.5
  TSA melting curve raw fluorescence signal: 5713,35101332965
Temperature 93
  TSA melting curve raw fluorescence signal: 5664,77915169386
Temperature 93.5
  TSA melting curve raw fluorescence signal: 5615,83290965879
Temperature 94
  TSA melting curve raw fluorescence signal: 5566,24729616446
Temperature 94.5
  TSA melting curve raw fluorescence signal: 5516,6627489992
Temperature 95
  TSA melting curve raw fluorescence signal: 5465,82751388956
